According to US20110184017A1, “STABLE AQUEOUS SOLUTION COMPOSITION CONTAINING SULFONAMIDE COMPOUND” (ASAHI KASEI PHARMA CORPORATION, priority 2008, published 2011):
Entries after “also recorded” stand apart in the source; their conditions may differ.

What was measured:
Photostability test = type: physicochemical; conditions: aqueous solution; estimated from similar absorption spectrum
Description: In the following test, LT-120D3CJ (Nagano Science Co., Ltd.) was used as a photostability tester. Purity of (S)-1-(4-chloro-5-isoquinolinesulfonyl)-3-(methylamino)pyrrolidine in the samples of the examples and the comparative example was measured by the liquid chromatography method described in Test Example 2.
The samples of Example 5 and Comparative Example 3 were subjected to light irradiation at 5,000 lux for ten days […] at 25° C. by using a D65 daylight fluorescent lamp installed in the photostability tester. As the photostability tester, an apparatus was used that was capable of uniformly irradiating the samples with light by turning a table. The illumination was 5,000 lux, and 1,200,000 lux·hr in total was irradiated over ten days. The accumulated near-ultraviolet energy during the photostability test was 474 to 488 W·h/m^2.
2) Purities of (S)-1-(4-chloro-5-isoquinolinesulfonyl)-3-(methylamino)pyrrolidine in the solutions of the light-irradiated samples were compared with that of a sample stored at 5° C. in a dark place.

Japanese white rabbits = test: Rabbit intraocular pressure reduction test; type: in vivo; conditions: FIG. 1
Description: In order to examine difference in the intraocular pressure reducing effect depending on a different pH of (S)-1-(4-chloro-5-isoquinolinesulfonyl)-3-(methylamino)pyrrolidine solution, the following test was performed by using Japanese white rabbits as experimental animals.
(S)-1-(4-Chloro-5-isoquinolinesulfonyl)-3-(methylamino)pyrrolidine hydrochloride obtained by the method described in International Patent Publication WO2007/026664 was dissolved in physiological saline, the solution was adjusted to pH 4, 5, 6, 7, 8 and 9 by adding sodium hydroxide, and the final concentration was adjusted to 0.5 mM. These solutions were used as (S)-1-(4-chloro-5-isoquinolinesulfonyl)-3-(methylamino)pyrrolidine solutions having different pH values.
The rabbits used were sufficiently conditioned for ophathalmic tonometry test, and used as groups each consisting of 6 animals. After a Benoxil ophthalmic solution 0.4% (an ophthalmologic local anesthesant, Santen Pharmaceutical Co., Ltd.) was applied to both eyes of each rabbit, intraocular pressure value before instillation was measured (initial intraocular pressure value, both right and left eyes) by using an ophathalmic tonometer (Model 30 Classic, Solan). […] After 2, 4, and 6 hours from the instillation, each rabbit was topically anesthetized with the an ophthalmologic local anesthesant, and intraocular pressure values of the both eyes were measured. […]

Row | Structure (SMILES) | photostability properties compared with the (methylamino)pyrrolidine compound (Photostability test) | intraocular pressure reducing action (Japanese white rabbits; 0.5 mM solutions adjusted to pH 4, 5, 6, 7, 8 and 9, instillation to normal rabbits, 2, 4 and 6 hours) | intraocular pressure reducing action (Japanese white rabbits; 0.5 mM solutions at pH 7 to 9, instillation to rabbits)
1 | N[C@H]1CCN(S(=O)(=O)c2cccc3cncc(Cl)c23)C1 [(S)-1-(4-chloro-5-isoquinolinesulfonyl)-3-aminopyrrolidine] | similar | – | –
2 | CN[C@H]1CCN(S(=O)(=O)c2cccc3cncc(Cl)c23)C1 [(S)-1-(4-chloro-5-isoquinolinesulfonyl)-3-(methylamino)pyrrolidine] | – | more strongly exhibited when a pH became higher in the range of pH 4 to 9; also recorded: became higher in a pH-dependent manner | strongly exhibited
